In the data set the test system is skin site on subject's forearm or face. Particulars: for ENHANCED ACTIVE DELIVERY (HISTAMINE RESPONSE): about 10 microliters 0.10% wt/wt histamine, visual inspection after 10 minutes. On the procedure: The microprotrusion disk of Example 1 was affixed on the desired skin site on subject's forearm or face. The implement of Example 3 was used to push the microprotrusion disk through stratum corneum with predetermined impact pressure modified by the choice of spring. The impact pressure was measured using a digital force meter (Model DFM 10, Chatillon, Greensboro, N.C.). The contact area between the implement device and skin was determined to be about 1.2 cm in diameter. The pressure per unit area was calculated from the ratio of pressure/contact area. The disk was removed immediately after the application. Both subject sensation (e.g., pain and sting) and erythema of the testing site were recorded immediately after the application, and is reported in Table 1.
The reaction of the subject's skin to histamine (e.g., erythema) was recorded after 10 minutes following histamine application to the treatment site by visual inspection. Additional inspection followed if a reaction was detected at 10 minutes. Controls were run by applying histamine solution to untreated skin sites (e.g., sites not pierced by the microprotrusion members). All test sites were graded visually for the evidence of post-inflammatory hyperpigmentation (PIH) for up to at least 3 weeks.

Each structure is given as a SMILES string. Read-outs that look alike come from different tables or passages of the source.

Regarding `NCCc1c[nH]cn1` [histamine], the “skin's reaction to topically applied histamine” value is, setting by setting: (control test sites: untreated skin, not pierced by the microprotrusion members) “did not result in erythema”; (following microprotrusion treatment) “manifested in erythema”. Further, the “ENHANCED ACTIVE DELIVERY (HISTAMINE RESPONSE)” value by setting is: (subject 1/Forearm, microprotrusion length 225 micrometer, 8 lbs/cm^2) “Yes,”; (subject 2/Forearm, microprotrusion length 225 micrometer, 6 lbs/cm^2) “Yes,”; (subject 3/Cheek (bone), microprotrusion length 185 micrometer, 3.2 lbs/cm^2) “Yes, but not”; (subject 4/Forearm, microprotrusion length 185 micrometer, 4.6 lbs/cm^2) “Yes,”; (subject 5/Forearm, microprotrusion length 185 micrometer, 8 lbs/cm^2) “Yes,”; (subject 6/Forehead, microprotrusion length 145 micrometer, 5 lbs/cm^2) “Yes,”.

The values are drawn from patent US20080009802A1, “Method of treating acne with stratum corneum piercing device” (priority 2005, published 2008).
